One experiment has as its target Acetylcholinesterase (Homo sapiens, UniProt P22303). Nature of the experiment: Inhibition of human recombinant AChE by Ellman's method.
The next experiment addresses Cholinesterase (Homo sapiens, UniProt P06276). Nature of the experiment: Inhibition of human serum BChE by Ellman's method. On the technique in general: In Ellman's method for cholinesterases, released thiocholine reacts with DTNB.

Sequence of Acetylcholinesterase (P22303 whole entry): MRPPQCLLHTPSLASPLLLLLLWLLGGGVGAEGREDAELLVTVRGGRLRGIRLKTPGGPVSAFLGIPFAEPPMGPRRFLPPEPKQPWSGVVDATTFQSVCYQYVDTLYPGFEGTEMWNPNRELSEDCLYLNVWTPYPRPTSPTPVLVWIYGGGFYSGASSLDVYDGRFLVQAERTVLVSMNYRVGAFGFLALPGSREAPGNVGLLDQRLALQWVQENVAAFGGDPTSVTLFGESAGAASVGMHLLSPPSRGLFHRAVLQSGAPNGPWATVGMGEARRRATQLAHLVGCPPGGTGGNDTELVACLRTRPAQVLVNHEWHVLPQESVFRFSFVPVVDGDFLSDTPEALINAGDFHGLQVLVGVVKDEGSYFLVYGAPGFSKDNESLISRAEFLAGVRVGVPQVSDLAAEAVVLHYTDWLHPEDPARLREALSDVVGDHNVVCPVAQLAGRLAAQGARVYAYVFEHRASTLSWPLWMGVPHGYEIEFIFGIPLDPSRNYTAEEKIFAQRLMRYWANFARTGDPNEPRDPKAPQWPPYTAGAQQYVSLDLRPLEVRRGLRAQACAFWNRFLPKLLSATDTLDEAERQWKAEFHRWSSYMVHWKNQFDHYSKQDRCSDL
Sequence of Cholinesterase (P06276 whole entry): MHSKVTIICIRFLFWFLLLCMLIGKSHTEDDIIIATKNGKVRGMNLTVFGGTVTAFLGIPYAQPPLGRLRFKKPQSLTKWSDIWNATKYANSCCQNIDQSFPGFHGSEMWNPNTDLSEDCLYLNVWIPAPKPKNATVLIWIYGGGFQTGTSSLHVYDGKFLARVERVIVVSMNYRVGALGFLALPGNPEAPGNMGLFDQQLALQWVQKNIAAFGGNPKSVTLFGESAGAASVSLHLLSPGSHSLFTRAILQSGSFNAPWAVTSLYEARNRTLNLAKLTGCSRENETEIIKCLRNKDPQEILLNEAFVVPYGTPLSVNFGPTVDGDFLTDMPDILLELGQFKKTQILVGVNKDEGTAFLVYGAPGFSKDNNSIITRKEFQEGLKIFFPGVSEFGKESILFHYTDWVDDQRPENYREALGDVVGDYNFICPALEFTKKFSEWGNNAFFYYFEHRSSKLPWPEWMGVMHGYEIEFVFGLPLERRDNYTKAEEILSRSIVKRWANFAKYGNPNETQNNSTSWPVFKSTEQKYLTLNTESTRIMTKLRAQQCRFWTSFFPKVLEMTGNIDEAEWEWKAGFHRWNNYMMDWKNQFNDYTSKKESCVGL

Usually IC50 stands for the midpoint of a concentration-inhibition curve. Take `CCN(Cc1ccccc1)Cc1ccc(C(=O)c2ccc(OC)c(OC)c2)cc1`: the IC50 came to 0.57 µM at Acetylcholinesterase and 71.5 µM on Cholinesterase.
The corresponding values for `COc1ccc(C(=O)c2ccc(CN(C)Cc3cccc(C)c3)cc2)cc1OC` are 1.65 µM and 125 µM.
The corresponding values for `COc1ccc(C(=O)c2ccc(/C=C/CN(C)Cc3ccccc3)cc2)cc1OC` are 2.1 µM and 44 µM.
Consider `COc1ccc(C(=O)c2ccc(CN(C)Cc3ccccc3)cc2)cc1F`, for which the IC50 on Acetylcholinesterase was 1.57 µM; at Cholinesterase it was more than 100 µM.
On the same counts, the results for `COc1ccc(C(=O)c2ccc(CN(C)Cc3cccc([N+](=O)[O-])c3)cc2)cc1OC` are 4.27 µM and more than 100 µM.
`COc1ccc(C(=O)c2ccc(CN(C)Cc3ccccc3)cc2)cc1OC`: the IC50 was 0.46 µM at Acetylcholinesterase and 60.7 µM on Cholinesterase.
Take `COc1ccc(C(=O)c2ccc(CN3CCOCC3)cc2)cc1OC`: on Acetylcholinesterase, the IC50 worked out at 345 µM.
As for `COc1ccc(C(=O)c2ccc(CN(C)CCN(C)C)cc2)cc1OC`, the IC50 at Acetylcholinesterase turned out to be 2.37 µM; against Cholinesterase it was 88.8 µM.
As to `C#CCN(C)Cc1ccc(C(=O)c2ccc(OC)c(OC)c2)cc1`, the IC50 at Acetylcholinesterase came out at 27.2 µM.
As to `COc1ccc(C(=O)c2ccc(CN3CCc4ccccc4C3)cc2)cc1OC`, the IC50 on Acetylcholinesterase is 54 µM.
On to `CN(Cc1ccccc1)Cc1ccc(C(=O)c2ccc3ccccc3c2)cc1`, for which the IC50 on Acetylcholinesterase was found to be 19.6 µM.
On to `COc1ccc(C(=O)c2ccc(CN(CCN(C)C)Cc3ccccc3)cc2)cc1OC`, for which the IC50 worked out at 8.64 µM on Acetylcholinesterase and 33.2 µM at Cholinesterase.
On the same counts, the results for `COc1ccc(C(=O)c2ccc(CN(CCO)Cc3ccccc3)cc2)cc1OC` are 1.41 µM and 172 µM.
On the same counts, the results for `COc1ccccc1CN(C)Cc1ccc(C(=O)c2ccc(OC)c(OC)c2)cc1` are 3.71 µM and 16.2 µM.
On the same counts, the results for `COc1ccc(C(=O)c2ccc(CN(C)Cc3ccccc3)cc2)cc1` are 1.82 µM and more than 100 µM.
In the case of `CCN(CC)Cc1ccc(C(=O)c2ccc(OC)c(OC)c2)cc1`, the IC50 on Acetylcholinesterase worked out at 36.8 µM.

Source of the values: ChEMBL document CHEMBL1138541, “Design, synthesis, and evaluation of benzophenone derivatives as novel acetylcholinesterase inhibitors” (Eur J Med Chem, 2009).
